Here are results for 28 molecules from patent US11267825B2 (AICURIS GMBH & CO. KG, priority 2017, dated 2022).

The structures appear in SMILES notation.

The subject of assay [1] is HBV. The assay is described as follows: Determination of HBV DNA from the supernatants of HepAD38 cells (anti-HBV activity). Type of assay: cell-based, hepatitis B virus. Conditions: Hepatitis B virus, 144 h; HBV DNA in HepAD38 supernatant at day 6; read-out: Cell Activity (EC50). A digest of the protocol:
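EC50 values were obtained by non-linear regression of HBV DNA copy numbers measured by qPCR against pCH-9/3091 plasmid standards. The DNA came from filtered supernatants collected on day 6. Before that, tetracycline-withdrawn HepAD38 cells had been exposed to serial half-log compound dilutions, with tetracycline-treated cells as the non-producing control.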

Assay [2] concerns the target HBV core protein (UniProt P03146). Type of assay: biochemical. The note with it: read-out: Assembly Activity (IC50); BODIPY-FL labelled core protein, assembly started with NaCl, read after 6 min. The gist of the method: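 Compounds tested at 8 concentrations in 0.5-log steps from 100, 31.6 or 10 μM against 1.0–2.0 μM BODIPY-FL-labelled Cys150 core dimers (residues 1–149), 50 mM HEPES pH 7.5. NaCl ([…] final) triggered assembly; quenching read at 6 min, 477/525 nm, with 2.5 M and 0 M NaCl as controls; EC50 by nonlinear fit.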

Sequence of HBV core protein (P03146 whole entry, looked up, the tested form may be a part): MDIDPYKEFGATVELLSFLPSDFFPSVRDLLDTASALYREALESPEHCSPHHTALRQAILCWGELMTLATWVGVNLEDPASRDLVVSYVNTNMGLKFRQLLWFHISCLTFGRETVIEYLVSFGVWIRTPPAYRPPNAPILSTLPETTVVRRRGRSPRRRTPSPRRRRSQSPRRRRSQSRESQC

Turning to `CCc1cc(F)cc2[nH]c(C(=O)N3CCc4nc(NC[C@@H]5CCOC5)sc4C3)cc12` [Example 328, 5-(4-ethyl-6-fluoro-1H-indole-2-carbonyl)-N-{[(3S)-oxolan-3-yl]methyl}-4H,5H,6H,7H-[1,3]thiazolo[5,4-c]pyridin-2-amine], the EC50 in assay [1] is under 1 µM. Besides, the concentration for half-maximal inhibition (IC50) in assay [2] is under 5 µM.
For `O=C(c1cc2ccccc2[nH]1)N1CCc2nc(NCC3(c4ccccn4)CCC3)sc2C1` [Example 432, 5-(1H-indole-2-carbonyl)-N-{[1-(pyridin-2-yl)cyclobutyl]methyl}-4H,5H,6H,7H-[1,3]thiazolo[5,4-c]pyridin-2-amine] the same measures were under 1 µM and under 5 µM.
For `CC(C)OC1(CNc2nc3c(s2)CN(C(=O)c2cc4ccccc4[nH]2)CC3)CCC1` [Example 413, 5-(1H-indole-2-carbonyl)-N-{[1-(propan-2-yloxy)cyclobutyl]methyl}-4H,5H,6H,7H-[1,3]thiazolo[5,4-c]pyridin-2-amine] the same measures were under 1 µM and under 5 µM.
The like results for `O=C(c1cc2ccccc2[nH]1)N1CCc2nc(NCC(F)(F)CO)sc2C1` [Example 225, 2,2-difluoro-3-{[5-(1H-indole-2-carbonyl)-4H,5H,6H,7H-[1,3]thiazolo[5,4-c]pyridin-2-yl]amino}propan-1-ol] were, in that order, under 1 µM and under 5 µM.
Consider `O=C(c1cc2c(F)cc(F)cc2[nH]1)N1CCc2nc(N[C@H]3CC[C@@H](O)CC3)sc2C1` [Example 344, (1s,4s)-4-{[5-(4,6-difluoro-1H-indole-2-carbonyl)-4H,5H,6H,7H-[1,3]thiazolo[5,4-c]pyridin-2-yl]amino}cyclohexan-1-ol], for which, in assay [1], the EC50 is under 1 µM. Besides, the IC50 in assay [2] fell in the range of 5 to 10 µM.
Take `O=C(c1cc2ccccc2[nH]1)N1CCc2nc(NCC(CO)CC3CCOCC3)sc2C1` (centres unmarked) [Example 226, 3-{[5-(1H-indole-2-carbonyl)-4H,5H,6H,7H-[1,3]thiazolo[5,4-c]pyridin-2-yl]amino}-2-[(oxan-4-yl)methyl]propan-1-ol]: the 50% effective concentration (EC50) in assay [1] was under 1 µM. Also, the IC50 in assay [2] was under 5 µM.
For `O=C(c1cc2ccccc2[nH]1)N1CCc2nc(N[C@@H]3CCCC[C@H]3O)sc2C1` [Example 269, (1R,2R)-2-{[5-(1H-indole-2-carbonyl)-4H,5H,6H,7H-[1,3]thiazolo[5,4-c]pyridin-2-yl]amino}cyclohexan-1-ol], the concentration giving a half-maximal response (EC50) in assay [1] was under 1 µM. Also, the IC50 in assay [2] is under 5 µM.
As to `CC(C)(C)NC(=O)Nc1nc2c(s1)CN(C(=O)c1cc3ccccc3[nH]1)CC2` [Example 264, 3-tert-butyl-1-[5-(1H-indole-2-carbonyl)-4H,5H,6H,7H-[1,3]thiazolo[5,4-c]pyridin-2-yl]urea], the EC50 in assay [1] was under 1 µM. Also, the IC50 in assay [2] was in the range of 5 to 10 µM.
For `Cc1nc2c(s1)CN(C(=O)c1cc3c(F)ccc(F)c3[nH]1)CC2` [Example 191, 4,7-difluoro-2-{2-methyl-4H,5H,6H,7H-[1,3]thiazolo[5,4-c]pyridine-5-carbonyl}-1H-indole], the half-maximal effective concentration (EC50) in assay [1] is under 1 µM. The concentration for half-maximal inhibition (IC50) in assay [2] fell in the range of 5 to 10 µM.
For `CC(=O)NNc1nc2c(s1)CN(C(=O)c1cc3ccccc3[nH]1)CC2` [Example 58, N′-[5-(1H-indole-2-carbonyl)-4H,5H,6H,7H-[1,3]thiazolo[5,4-c]pyridin-2-yl]acetohydrazide] the same measures were 1 to 10 µM and 5 to 10 µM.
For `Nc1nc2c(s1)CN(C(=O)c1cc3c(F)cccc3[nH]1)CC2` [Example 195, 5-(4-fluoro-1H-indole-2-carbonyl)-4H,5H,6H,7H-[1,3]thiazolo[5,4-c]pyridin-2-amine] the same measures were 1 to 10 µM and 5 to 10 µM.
For `Nc1nc2c(s1)CN(C(=O)c1cc3cc(Cl)ccc3[nH]1)CC2` [Example 155, 5-(5-chloro-1H-indole-2-carbonyl)-4H,5H,6H,7H-[1,3]thiazolo[5,4-c]pyridin-2-amine] the same measures were 1 to 10 µM and under 5 µM.
As for `O=C(c1cc2ccccc2[nH]1)N1CCc2nc(NCCO)sc2C1` [Example 157, 2-{[5-(1H-indole-2-carbonyl)-4H,5H,6H,7H-[1,3]thiazolo[5,4-c]pyridin-2-yl]amino}ethan-1-ol], in assay [1], the EC50 was under 1 µM. Also, in assay [2], the IC50 is under 5 µM.
The like results for `O=C(c1cc2c(Cl)cccc2[nH]1)N1CCc2nc(NCC3(CO)CC3)sc2C1` [Example 63, [1-({[5-(4-chloro-1H-indole-2-carbonyl)-4H,5H,6H,7H-[1,3]thiazolo[5,4-c]pyridin-2-yl]amino}methyl)cyclopropyl]methanol] were, in that order, under 1 µM and under 5 µM.
The like results for `O=C(Nc1nc2c(s1)CN(C(=O)c1cc3ccccc3[nH]1)CC2)C1CCCCO1` (centres unmarked) [Example 315, N-[5-(1H-indole-2-carbonyl)-4H,5H,6H,7H-[1,3]thiazolo[5,4-c]pyridin-2-yl]oxane-2-carboxamide] were, in that order, under 1 µM and 5 to 10 µM.
Consider `Cc1nc2c(s1)CN(C(=O)c1cc3c(Cl)ccc(Cl)c3[nH]1)CC2` [Example 186, 4,7-dichloro-2-{2-methyl-4H,5H,6H,7H-[1,3]thiazolo[5,4-c]pyridine-5-carbonyl}-1H-indole], for which the half-maximal effective concentration (EC50) in assay [1] is under 100 µM. Moreover, in assay [2], the half-maximal inhibitory concentration (IC50) was under 100 µM.
Consider `O=C(c1cc2ccc(Cl)cc2[nH]1)N1CCc2nc(NC3(CO)CCC3)sc2C1` [Example 299, (1-{[5-(6-chloro-1H-indole-2-carbonyl)-4H,5H,6H,7H-[1,3]thiazolo[5,4-c]pyridin-2-yl]amino}cyclobutyl)methanol], for which, in assay [1], the EC50 is under 1 µM. Further, in assay [2], the IC50 was under 5 µM.
The like results for `O=C(c1cc2ccccc2[nH]1)N1CCc2nc(CNC3CCOC3)sc2C1` (centres unmarked) [Example 40, N-{[5-(1H-indole-2-carbonyl)-4H,5H,6H,7H-[1,3]thiazolo[5,4-c]pyridin-2-yl]methyl}oxolan-3-amine] were, in that order, 1 to 10 µM and 5 to 10 µM.
`COC(C)(CO)CNc1nc2c(s1)CN(C(=O)c1cc3ccccc3[nH]1)CC2` (centres unmarked) [Example 283, 3-{[5-(1H-indole-2-carbonyl)-4H,5H,6H,7H-[1,3]thiazolo[5,4-c]pyridin-2-yl]amino}-2-methoxy-2-methylpropan-1-ol]: the concentration for a half-maximal effect (EC50) in assay [1] was under 1 µM. Also, in assay [2], the IC50 lay in the range of 5 to 10 µM.
For `CC1(C)OCC(CNc2nc3c(s2)CN(C(=O)c2cc4ccccc4[nH]2)CC3)O1` (centres unmarked) [Example 205, N-[(2,2-dimethyl-1,3-dioxolan-4-yl)methyl]-5-(1H-indole-2-carbonyl)-4H,5H,6H,7H-[1,3]thiazolo[5,4-c]pyridin-2-amine] the same measures were under 1 µM and 5 to 10 µM.
Consider `CC(C)Nc1nc2c(s1)CN(C(=O)c1cc3ccccc3[nH]1)CC2` [Example 128, 5-(1H-indole-2-carbonyl)-N-(propan-2-yl)-4H,5H,6H,7H-[1,3]thiazolo[5,4-c]pyridin-2-amine], for which the EC50 in assay [1] is under 1 µM. Besides, the concentration for half-maximal inhibition (IC50) in assay [2] is under 5 µM.
In the case of `O=C(Nc1nc2c(s1)CN(C(=O)c1cc3ccccc3[nH]1)CC2)C1CCOCC1` [Example 2, N-[5-(1H-indole-2-carbonyl)-4H,5H,6H,7H-[1,3]thiazolo[5,4-c]pyridin-2-yl]oxane-4-carboxamide], in assay [1], the concentration for a half-maximal effect (EC50) was under 1 µM. Moreover, in assay [2], the half-maximal inhibitory concentration (IC50) was under 5 µM.
The like results for `CN1CCN(CCNc2nc3c(s2)CN(C(=O)c2cc4ccccc4[nH]2)CC3)CC1` [Example 181, 5-(1H-indole-2-carbonyl)-N-[2-(4-methylpiperazin-1-yl)ethyl]-4H,5H,6H,7H-[1,3]thiazolo[5,4-c]pyridin-2-amine] were, in that order, 1 to 10 µM and under 5 µM.
Take `CCc1cccc2[nH]c(C(=O)N3CCc4nc(NCC5(O)CCC5)sc4C3)cc12` [Example 338, 1-({[5-(4-ethyl-1H-indole-2-carbonyl)-4H,5H,6H,7H-[1,3]thiazolo[5,4-c]pyridin-2-yl]amino}methyl)cyclobutan-1-ol]: the 50% effective concentration (EC50) in assay [1] is under 1 µM. Moreover, in assay [2], the IC50 was under 5 µM.
For `CCC(C)(CO)CNc1nc2c(s1)CN(C(=O)c1cc3ccccc3[nH]1)CC2` (centres unmarked) [Example 216, 2-({[5-(1H-indole-2-carbonyl)-4H,5H,6H,7H-[1,3]thiazolo[5,4-c]pyridin-2-yl]amino}methyl)-2-methylbutan-1-ol] the same measures were under 1 µM and 5 to 10 µM.
Consider `CC(C)(C)OC(=O)N1CCOCC1CNc1nc2c(s1)CN(C(=O)c1cc3ccccc3[nH]1)CC2` (centres unmarked) [Example 238, tert-butyl 3-({[5-(1H-indole-2-carbonyl)-4H,5H,6H,7H-[1,3]thiazolo[5,4-c]pyridin-2-yl]amino}methyl)morpholine-4-carboxylate], for which the EC50 in assay [1] is 1 to 10 µM. For the same molecule, the half-maximal inhibitory concentration (IC50) in assay [2] is under 100 µM.
For `O=C(c1cc2c(C(F)F)cc(F)cc2[nH]1)N1CCc2nc(NCC3CCOC3)sc2C1` (centres unmarked) [Example 326, 5-[4-(difluoromethyl)-6-fluoro-1H-indole-2-carbonyl]-N-[(oxolan-3-yl)methyl]-4H,5H,6H,7H-[1,3]thiazolo[5,4-c]pyridin-2-amine] the same measures were under 1 µM and under 5 µM.
The like results for `O=C(c1cc2c(F)c(F)ccc2[nH]1)N1CCc2nc(NCC3(O)CCC3)sc2C1` [Example 375, 1-({[5-(4,5-difluoro-1H-indole-2-carbonyl)-4H,5H,6H,7H-[1,3]thiazolo[5,4-c]pyridin-2-yl]amino}methyl)cyclobutan-1-ol] were, in that order, under 1 µM and under 5 µM.
